Data: patent publication US20180170941A1 (priority 2016, published 2018)

The compounds below were run against T1, α5β3γ2 GABAA receptors (Ltk cell membranes) (Homo sapiens, UniProt P18507+P31644) (assay: Binding activity of test compounds on GABAAR: inhibition of [3H]Ro15-1788 binding). Details: not given.
T1 construct: membranes
Experimental: Tissue culture and Membrane Preparation: The binding was performed on Ltk cells stably expressing GABAA receptors: α1β1γ2, α2β3γ2, α3β3γ2 and α5β3γ2 (provided by Merck Co., NJ, USA). Cells were seeded in 100 mm culture plates in DMEM/F12 medium containing 10% serum and antibiotics in 5% CO2 and allowed to grow for 1-2 days. GABAAR expression was then induced by dexamethasone as follows: 0.5 μM for 1 day for α5 containing and 2μM for 3 days for α1, α2 and α3 containing GABAARs. After induction, cells were collected by scraping into Dulbecco's Phosphate buffered saline (DPBS, pH 7.4, Invitrogen, Carlsbad, Calif., USA) and centrifuged at 150×g for 10 min. The pellet was washed twice by re-suspension and centrifugation. The cell pellets from at least 5 different preps were combined, suspended in the binding assay buffer (50 mM KH2P4; 1 mM EDTA; 0.2 M KCl, pH 7.4) and membranes prepared by sonication (3-5 times, 30 sec) using Branson Sonifier 150 (G.Heinmann, Germany). Protein content was determined using BCA assay (Bio-Rad Labs, Reinach, Switzerland) with Bovine Serum Albumin (Sigma Aldrich, St. Louis, Mo., USA) as the standard. Aliquots were prepared and stored at −20° C. for further use in binding assays.
Ligand Binding: Saturation binding curves were obtained by incubating membranes with increasing concentrations (0.01-8 nM) of [^3H]Ro15-1788 (Flumazepil, 75-85 Ci/mmol, PerkinElmer, MA, USA), with nonspecific binding measured in the presence of 10 μM diazepam.
All binding assays were performed for 1 h at 4° C. in assay buffer. The total assay volume was 0.5 ml containing 0.2 mg/ml protein for α5 and 0.4 mg/ml for α1, α2, and α3 containing GABAAR membranes. Incubations were terminated by filtration through GF/B filters using a 24-Cell Harvestor (Brandel, Gaithersburg, Md., USA) followed by 3 washes with ice-cold assay buffer. Filters were transferred to scintillation vials, 5 ml scintillation liquid added, vortex-mixed and kept in dark. Next day, radioactivity was obtained using a scintillation counter (Beckman Coulter, Brea, Calif., USA). All assays were performed in triplicate.
Data Analyses: Saturation and inhibition curves were obtained using GraphPad Prism software (GraphPad Software, Inc., CA, USA).

T1 sequence (P31644 32-462): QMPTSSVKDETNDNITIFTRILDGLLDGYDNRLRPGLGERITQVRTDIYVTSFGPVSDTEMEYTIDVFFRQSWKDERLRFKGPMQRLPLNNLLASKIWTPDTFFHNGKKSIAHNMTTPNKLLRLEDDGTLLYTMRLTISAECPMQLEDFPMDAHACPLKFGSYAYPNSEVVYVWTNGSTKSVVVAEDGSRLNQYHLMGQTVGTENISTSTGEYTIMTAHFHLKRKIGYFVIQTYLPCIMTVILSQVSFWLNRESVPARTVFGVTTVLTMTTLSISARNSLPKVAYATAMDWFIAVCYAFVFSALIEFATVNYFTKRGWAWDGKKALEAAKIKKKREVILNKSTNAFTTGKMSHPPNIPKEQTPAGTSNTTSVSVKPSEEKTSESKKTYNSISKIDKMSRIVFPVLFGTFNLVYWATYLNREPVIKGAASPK
T1 sequence (P28472 26-473 partner): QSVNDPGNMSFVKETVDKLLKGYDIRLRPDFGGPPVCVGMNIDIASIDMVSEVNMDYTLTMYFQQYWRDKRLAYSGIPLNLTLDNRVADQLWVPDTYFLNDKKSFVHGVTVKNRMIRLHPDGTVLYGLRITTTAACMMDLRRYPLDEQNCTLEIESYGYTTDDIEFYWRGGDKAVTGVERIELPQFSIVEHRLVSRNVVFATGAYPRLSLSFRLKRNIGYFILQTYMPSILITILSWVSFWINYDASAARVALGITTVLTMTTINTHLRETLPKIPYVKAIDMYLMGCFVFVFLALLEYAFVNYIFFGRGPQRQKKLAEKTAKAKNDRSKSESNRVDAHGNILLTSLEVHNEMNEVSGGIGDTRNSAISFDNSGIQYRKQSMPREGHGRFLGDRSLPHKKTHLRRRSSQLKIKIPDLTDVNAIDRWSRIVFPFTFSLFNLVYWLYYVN
T1 sequence (P18507 40-475): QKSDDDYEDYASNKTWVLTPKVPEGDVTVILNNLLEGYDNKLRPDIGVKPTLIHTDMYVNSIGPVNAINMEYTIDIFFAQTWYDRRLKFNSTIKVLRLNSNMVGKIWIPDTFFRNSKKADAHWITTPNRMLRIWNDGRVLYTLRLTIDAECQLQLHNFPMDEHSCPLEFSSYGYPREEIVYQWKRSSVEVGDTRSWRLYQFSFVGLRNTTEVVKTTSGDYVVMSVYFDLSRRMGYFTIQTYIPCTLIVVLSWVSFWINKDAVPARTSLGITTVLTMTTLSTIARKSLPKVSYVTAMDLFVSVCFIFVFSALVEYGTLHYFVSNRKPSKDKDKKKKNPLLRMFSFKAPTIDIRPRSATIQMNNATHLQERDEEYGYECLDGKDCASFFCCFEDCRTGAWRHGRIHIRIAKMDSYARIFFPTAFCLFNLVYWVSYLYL

Q: For `CCC(=O)c1ncn2c1Cn1c(COc3ccccc3)nnc1-c1cc(OC)ccc1-2` [Compound 123], which Ki is on record?
A: > 1000 nM

Q: For `COCc1nnc2n1Cc1cncn1-c1ccc(OC)cc1-2` [Compound 131], which Ki is on record?
A: > 1000 nM

Q: Which Ki does the source give for `COc1ccc2c(c1)-c1nnc(COc3ccccc3)n1Cc1c(Cc3ccccc3)ncn1-2` [Compound 142] here?
A: > 1000 nM

Q: How did the Ki turn out when `Cc1ccc(S(=O)(=O)c2ncn3c2Cc2c(C)nnn2-c2cc(F)ccc2-3)cc1` [Compound 143] was run?
A: > 1000 nM

Same assay, conditions: GABA α5 Binding Ki Values, inhibition of [3H]Ro15-1788 binding; reported as ranges

Q: How did the Ki turn out when `CCOC(=O)c1ncn2c1Cc1c(C)nnn1-c1cc(OC)ccc1-2` [Compound 1] was run?
A: < 100 nM

Q: With `CCOC(=O)c1ncn2c1Cc1c(C)nnn1-c1cc(F)ccc1-2` [Compound 2] as the compound, how does the Ki read?
A: < 100 nM

Q: For `CCOC(=O)c1ncn2c1Cc1c(C)nnn1-c1ccccc1-2` [Compound 3], which Ki is on record?
A: < 100 nM

Q: For `CCOC(=O)c1ncn2c1Cc1c(Cc3ccccc3)nnn1-c1cc(OC)ccc1-2` [Compound 4], which Ki is on record?
A: < 100 nM

Q: `CCOC(=O)c1ncn2c1Cc1c(Cc3ccccc3)nnn1-c1ccccc1-2` [Compound 5] was tested. Which Ki did it give?
A: < 100 nM

Q: Which Ki does the source give for `CCOC(=O)c1ncn2c1Cc1c(Cc3ccccc3)nnn1-c1cc(F)ccc1-2` [Compound 6] here?
A: < 100 nM

Q: Which Ki does the source give for `CCOC(=O)c1ncn2c1Cc1c(C)cnn1-c1cc(OC)ccc1-2` [Compound 7] here?
A: < 100 nM

Q: Which Ki does the source give for `CCOC(=O)c1ncn2c1Cc1c(Cc3ccccc3)cnn1-c1cc(OC)ccc1-2` [Compound 8] here?
A: < 100 nM

Q: `CCOC(=O)c1ncn2c1Cc1c(COc3ccccc3)nnn1-c1cc(OC)ccc1-2` [Compound 9] was tested. Which Ki did it give?
A: < 100 nM

Q: For `CCOC(=O)c1ncn2c1Cc1c(COc3ccc(F)cc3)nnn1-c1cc(OC)ccc1-2` [Compound 10], which Ki is on record?
A: < 100 nM

Q: For `CCOC(=O)c1ncn2c1Cc1c(COc3cccc(OC)c3)nnn1-c1cc(OC)ccc1-2` [Compound 11], which Ki is on record?
A: < 100 nM

Q: `CCOC(=O)c1ncn2c1Cc1c(COc3ccc(C)cc3C)nnn1-c1cc(OC)ccc1-2` [Compound 12] was tested. Which Ki did it give?
A: < 100 nM

Q: With `CCOC(=O)c1ncn2c1Cc1c(Cc3ccc(C)cc3)nnn1-c1cc(F)ccc1-2` [Compound 44] as the compound, how does the Ki read?
A: < 100 nM

Q: For `CCOC(=O)c1ncn2c1Cc1c(Cc3ccc(Cl)cc3)nnn1-c1cc(F)ccc1-2` [Compound 45], which Ki is on record?
A: < 100 nM

Q: With `CCOC(=O)c1ncn2c1Cc1c(Cc3ccc(F)cc3)nnn1-c1cc(F)ccc1-2` [Compound 46] as the compound, how does the Ki read?
A: < 100 nM

Q: For `CCOC(=O)c1ncn2c1Cc1c(Cc3ccc(Cl)cc3)nnn1-c1ccccc1-2` [Compound 47], which Ki is on record?
A: < 100 nM

Q: With `CCOC(=O)c1ncn2c1Cc1c(CN3CCCC3)nnn1-c1cc(OC)ccc1-2` [Compound 48] as the compound, how does the Ki read?
A: < 100 nM

Q: With `CCOC(=O)c1ncn2c1Cc1c(CN3CCOCC3)nnn1-c1cc(OC)ccc1-2` [Compound 49] as the compound, how does the Ki read?
A: < 100 nM

Q: Which Ki does the source give for `CCOC(=O)c1ncn2c1Cc1c(CN(CC)CC)nnn1-c1cc(OC)ccc1-2` [Compound 50] here?
A: 100 to 1000 nM

Q: Which Ki does the source give for `CCOC(=O)c1ncn2c1Cc1c(CN(C)Cc3ccccc3)nnn1-c1cc(OC)ccc1-2` [Compound 51] here?
A: < 100 nM

Q: For `CCOC(=O)c1ncn2c1Cc1c(Cc3cccc(Cl)c3)nnn1-c1cc(OC)ccc1-2` [Compound 52], which Ki is on record?
A: < 100 nM

Q: How did the Ki turn out when `CCOC(=O)c1ncn2c1Cc1c(Cc3cccc(C#N)c3)nnn1-c1cc(OC)ccc1-2` [Compound 53] was run?
A: < 100 nM

Q: `CCOC(=O)c1ncn2c1Cn1c(COc3ccccc3)nnc1-c1cc(OC)ccc1-2` [Compound 55] was tested. Which Ki did it give?
A: < 100 nM

Q: `CCOC(=O)c1ncn2c1Cn1c(COc3ccc(F)cc3)nnc1-c1cc(OC)ccc1-2` [Compound 56] was tested. Which Ki did it give?
A: < 100 nM

Q: How did the Ki turn out when `CCOC(=O)c1ncn2c1Cc1c(Cc3ccccc3)nnn1-c1cc(C)ccc1-2` [Compound 101] was run?
A: < 100 nM

Q: `CCOC(=O)c1ncn2c1Cc1c(C)nnn1-c1cc(C)ccc1-2` [Compound 102] was tested. Which Ki did it give?
A: < 100 nM

Q: How did the Ki turn out when `CCOC(=O)c1ncn2c1Cn1c(COC)nnc1-c1cc(OC)ccc1-2` [Compound 103] was run?
A: < 100 nM

Q: `CCOC(=O)c1ncn2c1Cn1c(Oc3ccccc3)nnc1-c1cc(OC)ccc1-2` [Compound 104] was tested. Which Ki did it give?
A: < 100 nM

Q: Which Ki does the source give for `CCOC(=O)c1ncn2c1Cn1c(Oc3cccc(OC)c3)nnc1-c1cc(OC)ccc1-2` [Compound 105] here?
A: < 100 nM

Q: Which Ki does the source give for `CCOC(=O)c1ncn2c1Cn1c(Br)nnc1-c1cc(OC)ccc1-2` [Compound 106] here?
A: < 100 nM

Q: `CCOC(=O)c1ncn2c1Cc1c(COc3ccccc3)nnn1-c1cc(F)ccc1-2` [Compound 107] was tested. Which Ki did it give?
A: < 100 nM

Q: For `CCOC(=O)c1ncn2c1Cc1c(Cc3ccccc3Cl)nnn1-c1cc(OC)ccc1-2` [Compound 108], which Ki is on record?
A: < 100 nM

Q: With `Cc1noc(-c2ncn3c2Cc2c(Cc4ccccc4)nnn2-c2cc(F)ccc2-3)n1` [Compound 109] as the compound, how does the Ki read?
A: < 100 nM

Q: Which Ki does the source give for `Cc1noc(-c2ncn3c2Cc2c(C)nnn2-c2cc(F)ccc2-3)n1` [Compound 110] here?
A: 100 to 1000 nM

Q: For `Cc1nnn2c1Cc1c(C(=O)OC(C)C)ncn1-c1ccc(F)cc1-2` [Compound 112], which Ki is on record?
A: < 100 nM

Q: `Cc1nnn2c1Cc1c(C(=O)OCC(C)(C)C)ncn1-c1ccc(F)cc1-2` [Compound 113] was tested. Which Ki did it give?
A: 100 to 1000 nM

Q: Which Ki does the source give for `Cc1nnn2c1Cc1c(C(=O)OCC(F)(F)F)ncn1-c1ccc(F)cc1-2` [Compound 114] here?
A: < 100 nM

Q: `Cc1nnn2c1Cc1c(C#N)ncn1-c1ccccc1-2` [Compound 115] was tested. Which Ki did it give?
A: 100 to 1000 nM

Q: For `Cc1nnn2c1Cc1c(C#N)ncn1-c1ccc(F)cc1-2` [Compound 116], which Ki is on record?
A: > 1000 nM

Q: `Cc1nnn2c1Cc1c(C(N)=O)ncn1-c1ccccc1-2` [Compound 117] was tested. Which Ki did it give?
A: > 1000 nM

Q: `COc1ccc2c(c1)-c1nnc(COc3ccccc3)n1Cc1c(-c3nc(C)no3)ncn1-2` [Compound 118] was tested. Which Ki did it give?
A: < 100 nM

Q: How did the Ki turn out when `COc1ccc2c(c1)-c1nnc(COc3ccccc3)n1Cc1c(C(=O)OCC(C)(C)C)ncn1-2` [Compound 119] was run?
A: 100 to 1000 nM

Q: For `COc1ccc2c(c1)-c1nnc(COc3ccccc3)n1Cc1c(C(=O)OC(C)C)ncn1-2` [Compound 120], which Ki is on record?
A: < 100 nM

Q: How did the Ki turn out when `Cc1ncn2c1Cc1c(C)nnn1-c1ccccc1-2` [Compound 121] was run?
A: > 1000 nM

Q: For `COc1ccc2c(c1)-c1nnc(COc3ccccc3)n1Cc1c(C#N)ncn1-2` [Compound 122], which Ki is on record?
A: < 100 nM

Q: With `COc1ccc2c(c1)-c1nnc(COc3ccccc3)n1Cc1c(C(F)F)ncn1-2` [Compound 124] as the compound, how does the Ki read?
A: 100 to 1000 nM

Q: How did the Ki turn out when `CCC(=O)c1ncn2c1Cc1c(C)nnn1-c1ccccc1-2` [Compound 125] was run?
A: 100 to 1000 nM

Q: Which Ki does the source give for `Cc1noc(-c2ncn3c2Cc2c(C)nnn2-c2ccccc2-3)n1` [Compound 126] here?
A: < 100 nM

Q: `Cc1nc(-c2ncn3c2Cc2c(C)nnn2-c2ccccc2-3)no1` [Compound 127] was tested. Which Ki did it give?
A: < 100 nM

Q: For `COCc1nnc2n1Cc1c(-c3nc(C)no3)ncn1-c1ccc(OC)cc1-2` [Compound 128], which Ki is on record?
A: < 100 nM

Q: For `COCc1nnc2n1Cc1c(Br)ncn1-c1ccc(OC)cc1-2` [Compound 129], which Ki is on record?
A: < 100 nM

Q: `COCc1nnc2n1Cc1c(-c3nc(C(C)C)no3)ncn1-c1ccc(OC)cc1-2` [Compound 130] was tested. Which Ki did it give?
A: < 100 nM

Q: How did the Ki turn out when `Cc1nnn2c1Cc1c(-c3nc(C(C)C)no3)ncn1-c1ccccc1-2` [Compound 132] was run?
A: < 100 nM

Q: With `Cc1nnn2c1Cc1c(-c3noc(C(C)C)n3)ncn1-c1ccccc1-2` [Compound 133] as the compound, how does the Ki read?
A: < 100 nM

Q: With `CCOCc1ncn2c1Cc1c(COCC)nnn1-c1ccccc1-2` [Compound 134] as the compound, how does the Ki read?
A: 100 to 1000 nM

Q: `Cc1ncn2c1Cc1c(C)nnn1-c1cc(F)ccc1-2` [Compound 135] was tested. Which Ki did it give?
A: > 1000 nM

Q: How did the Ki turn out when `Cc1nnn2c1Cc1c(Br)ncn1-c1ccc(F)cc1-2` [Compound 136] was run?
A: 100 to 1000 nM

Q: With `CCOC(=O)c1ncn2c1Cn1c(COc3ccccc3)nnc1-c1cc(F)ccc1-2` [Compound 137] as the compound, how does the Ki read?
A: < 100 nM

Q: `Cc1noc(-c2ncn3c2Cn2c(COc4ccccc4)nnc2-c2cc(F)ccc2-3)n1` [Compound 138] was tested. Which Ki did it give?
A: 100 to 1000 nM

Q: `Cc1nnn2c1Cc1c(-c3ccccc3)ncn1-c1ccc(F)cc1-2` [Compound 139] was tested. Which Ki did it give?
A: 100 to 1000 nM

Q: `Cc1nnn2c1Cc1c(-c3cccnc3)ncn1-c1ccc(F)cc1-2` [Compound 140] was tested. Which Ki did it give?
A: > 1000 nM

Q: `CC(C)c1noc(-c2ncn3c2Cn2c(COc4ccccc4)nnc2-c2cc(F)ccc2-3)n1` [Compound 141] was tested. Which Ki did it give?
A: 100 to 1000 nM

Q: For `Cc1ccc(S(=O)(=O)c2ncn3c2Cc2c(C)nnn2-c2cc(F)ccc2-3)cc1` [Compound 143], which Ki is on record?
A: 100 to 1000 nM

Q: How did the Ki turn out when `Cc1cnc(-c2ncn3c2Cc2c(C)nnn2-c2cc(F)ccc2-3)nc1` [Compound 144] was run?
A: 100 to 1000 nM

Q: With `Cc1nc(-c2ncn3c2Cc2c(C)nnn2-c2cc(F)ccc2-3)no1` [Compound 145] as the compound, how does the Ki read?
A: < 100 nM

Q: For `Cc1cnc(-c2ncn3c2Cc2c(C)nnn2-c2ccccc2-3)nc1` [Compound 146], which Ki is on record?
A: 100 to 1000 nM

Q: How did the Ki turn out when `CC(C)c1nc(-c2ncn3c2Cn2c(COc4ccccc4)nnc2-c2cc(F)ccc2-3)no1` [Compound 147] was run?
A: < 100 nM

Q: For `Cc1nc(-c2ncn3c2Cn2c(COc4ccccc4)nnc2-c2cc(F)ccc2-3)no1` [Compound 148], which Ki is on record?
A: < 100 nM

Q: Which Ki does the source give for `Cc1nnn2c1Cc1c(-c3noc(C(C)C)n3)ncn1-c1ccc(F)cc1-2` [Compound 149] here?
A: < 100 nM

Q: With `Cc1nnn2c1Cc1c(-c3noc(C(F)(F)F)n3)ncn1-c1ccc(F)cc1-2` [Compound 150] as the compound, how does the Ki read?
A: < 100 nM
